Results as given in ChEMBL document CHEMBL4483862, “Open-source discovery of chemical leads for next-generation chemoprotective antimalarials” (2018).

Tested on: Plasmodium berghei
Assay: Luciferase/luciferin-expressing antifolate-resistant parasites were used to infect a culture of HepG2 cells that were pre-incubated with compounds. Infected hepatocytes emit light due to the luciferase reaction. Assay results are presented as the percent inhibition of light emission compared to control. […]
Assay type: functional
Details: sporozoite; for IC90: read-out: LUCIFERASE INFECTION ASSAY - IC90
[1] = read-out: LUCIFERASE INFECTION ASSAY - IC50

Compound	IC90	other results
CCn1c(NC(=O)c2c(C)nn(-c3ccccc3)c2C)nc2ccccc21	9.89 µM	IC50 (HEPG2TOX_HILL_SLOPE 11.2, HEPG2TOX_R_SQUARED 0.651, PBLUC_HILL_SLOPE 20.8, PBLUC_R_SQUARED 0.508, read-out: LUCIFERASE INFECTION ASSAY - IC50): 8.9 µM
O=C(Nc1ccnn1Cc1ccccc1)c1ccc(C(=O)c2ccccc2)cc1	> 10 µM	IC50 (PBLUC_HILL_SLOPE 1.71, PBLUC_R_SQUARED 0.158, read-out: LUCIFERASE INFECTION ASSAY - IC50): 5.74 µM
Cc1c(Sc2ccc(Cl)cc2)c2ccccn2c1C(=O)c1cccs1	> 10 µM	IC50 (PBLUC_HILL_SLOPE 3.16, PBLUC_R_SQUARED 0.487, read-out: LUCIFERASE INFECTION ASSAY - IC50): 6.35 µM
COc1ccc(COC(=O)c2sc3nc4n(c(=O)c3c2C)CCC4)cc1F	> 10 µM	IC50 (PBLUC_HILL_SLOPE 15.9, PBLUC_R_SQUARED 0.0512, read-out: LUCIFERASE INFECTION ASSAY - IC50): 9.36 µM
NC(CCc1ccccc1)c1csc(Nc2ccc(C(=O)NCc3ccco3)cn2)n1 (stereo unspecified)	7.53 µM	IC50 (HEPG2TOX_HILL_SLOPE 15.2, HEPG2TOX_R_SQUARED 0.624, PBLUC_HILL_SLOPE 17, PBLUC_R_SQUARED 0.625, read-out: LUCIFERASE INFECTION ASSAY - IC50): 6.62 µM
CCOc1cccc(-c2cn3c(-c4ccc(C(=O)N(C)C)cc4)cnc3cn2)c1	3.39 µM	IC50 (PBLUC_HILL_SLOPE 14.8, PBLUC_R_SQUARED 0.204, read-out: LUCIFERASE INFECTION ASSAY - IC50): 2.92 µM
CC(C)Cc1ccc(C(C)NC(=O)c2ccc(CN3CCCC3)cc2)cc1 (stereo unspecified)	> 10 µM	IC50 (PBLUC_HILL_SLOPE 0.907, PBLUC_R_SQUARED 0.512, read-out: LUCIFERASE INFECTION ASSAY - IC50): 2.16 µM
COc1cc(C(=O)N/N=C(\Cc2ncc[nH]2)c2ccccc2)cc(OC)c1OC	> 10 µM	IC50 (HEPG2TOX_HILL_SLOPE 12.3, 3.85, HEPG2TOX_R_SQUARED 0.0839, 0.975, PBLUC_HILL_SLOPE 2.96, PBLUC_R_SQUARED 0.327, read-out: LUCIFERASE INFECTION ASSAY - IC50): 5.09 µM
Cc1nn(-c2ccccc2Cl)c(Cl)c1/C=N/Nc1ccccc1Cl	7.32 µM	IC50 (PBLUC_HILL_SLOPE 3.24, PBLUC_R_SQUARED 0.794, read-out: LUCIFERASE INFECTION ASSAY - IC50): 3.72 µM
O=c1cc(N2CCCN(c3ccc(C(F)(F)F)cn3)CC2)nc2ccccn12	> 10 µM	IC50 (PBLUC_HILL_SLOPE 2.47, PBLUC_R_SQUARED 0.397, read-out: LUCIFERASE INFECTION ASSAY - IC50): 5.84 µM
CC(Sc1nc2ccccc2c(=O)n1CCCN1CCOCC1)c1ccc(F)cc1 (stereo unspecified)	> 10 µM	IC50 [1]: > 10 µM
CC(C)Cn1c(N)c(C(=O)COC(=O)c2cc(-c3cccs3)nc3ccccc23)c(=O)n(C)c1=O	3.23 µM	IC50 (FFLUC_HILL_SLOPE 33.5, FFLUC_R_SQUARED 0.479, PBLUC_HILL_SLOPE 4.72, PBLUC_R_SQUARED 0.427, read-out: LUCIFERASE INFECTION ASSAY - IC50): 2.03 µM
CCn1nc(C)cc1-c1nnc(Sc2ncc([N+](=O)[O-])s2)n1C	8.02 µM	IC50 (FFLUC_HILL_SLOPE 4.24, FFLUC_R_SQUARED 0.134, HEPG2TOX_HILL_SLOPE 11.7, HEPG2TOX_R_SQUARED 0.968, PBLUC_HILL_SLOPE 3.63, PBLUC_R_SQUARED 0.242, read-out: LUCIFERASE INFECTION ASSAY - IC50): 4.38 µM
CS(=O)(=O)C(C#N)=Cc1ccccc1OCc1c(Cl)cccc1Cl	> 8.63 µM	IC50 (FFLUC_HILL_SLOPE 9.87, FFLUC_R_SQUARED 0.717, read-out: LUCIFERASE INFECTION ASSAY - IC50): > 8.63 µM
CN(C)c1cccc(-c2cnc3cnc(-c4cccc(C(N)=O)c4)cn23)c1	> 9.23 µM	IC50 (PBLUC_HILL_SLOPE 15.5, PBLUC_R_SQUARED 0.533, read-out: LUCIFERASE INFECTION ASSAY - IC50): 8.74 µM
CN1C(=O)N(CN2CCN(c3ccccn3)CC2)C(=O)C12CCCCC2	> 10 µM	IC50 [1]: > 10 µM
CC(C)OC(=O)c1c(NC(=O)CSc2nnc(N)[nH]2)sc2c1CCCC2	> 10 µM	IC50 (PBLUC_HILL_SLOPE 4.93, PBLUC_R_SQUARED 0.291, read-out: LUCIFERASE INFECTION ASSAY - IC50): 7.71 µM
Cc1ccc(SCc2ccc(-c3nc4ccccc4s3)cc2)cc1	> 9.5 µM	IC50 (PBLUC_HILL_SLOPE 1.56, PBLUC_R_SQUARED 0.316, read-out: LUCIFERASE INFECTION ASSAY - IC50): 4.39 µM
COC(=O)CCSc1nnc(Nc2ccc(OC(F)(F)F)cc2)s1	> 10 µM	IC50 [1]: > 10 µM

Compound	IC90	other results
Clc1c(-c2c(-c3ccccc3)[nH]c3ccccc23)nc2ccccc2c1-c1ccccc1	8.61 µM	IC50 (FFLUC_HILL_SLOPE 0.689, FFLUC_R_SQUARED 0.515, HEPG2TOX_HILL_SLOPE 2.63, HEPG2TOX_R_SQUARED 0.531, PBLUC_HILL_SLOPE 2.99, PBLUC_R_SQUARED 0.588, read-out: LUCIFERASE INFECTION ASSAY - IC50): 4.13 µM
COCCCNc1nccc2nc(-c3cccc(C(C)C)c3)[nH]c12	> 10 µM	IC50 (HEPG2TOX_HILL_SLOPE 0.453, HEPG2TOX_R_SQUARED 0.728, PBLUC_HILL_SLOPE 2.13, PBLUC_R_SQUARED 0.522, read-out: LUCIFERASE INFECTION ASSAY - IC50): 4.47 µM
COc1ccc(C)cc1NC(=O)c1ccc(NC(=O)Nc2ccccc2)s1	> 10 µM	IC50 (PBLUC_HILL_SLOPE 2.41, PBLUC_R_SQUARED 0.229, read-out: LUCIFERASE INFECTION ASSAY - IC50): 7.11 µM
COC(=O)c1ccc2[nH]c3c(c2c1)CN(c1ncnc2ccccc12)CC3	9.79 µM	IC50 (HEPG2TOX_HILL_SLOPE 2.18, 2.21, HEPG2TOX_R_SQUARED 0.310, 0.448, PBLUC_HILL_SLOPE 1.05, 1.29, PBLUC_R_SQUARED 0.612, 0.824, read-out: LUCIFERASE INFECTION ASSAY - IC50): 1.63 µM
COc1cc(/C=C(\C#N)c2ccc(C)cc2)cc(OC)c1OC	4.54 µM	IC50 (HEPG2TOX_HILL_SLOPE 1.64, HEPG2TOX_R_SQUARED 0.962, PBLUC_HILL_SLOPE 4.59, PBLUC_R_SQUARED 0.528, read-out: LUCIFERASE INFECTION ASSAY - IC50): 2.82 µM
CCOC(=O)c1c(S(=O)(=O)Nc2ccc(C(C)(C)C)cc2)c(-c2ccccc2)n(-c2ccccc2)c1C	5.19 µM	IC50 (FFLUC_HILL_SLOPE 2.33, FFLUC_R_SQUARED 0.844, HEPG2TOX_HILL_SLOPE 0.337, HEPG2TOX_R_SQUARED 0.667, PBLUC_HILL_SLOPE 4.65, PBLUC_R_SQUARED 0.51, read-out: LUCIFERASE INFECTION ASSAY - IC50): 3.23 µM
CCC(=O)Nc1nc(C)c(-c2csc(Nc3ccc(N(C)C)cc3)n2)s1	> 8.52 µM	IC50 (FFLUC_HILL_SLOPE 5.2, FFLUC_R_SQUARED 0.393, read-out: LUCIFERASE INFECTION ASSAY - IC50): > 8.52 µM
Cc1ccc(NC(=O)c2ccc(S(=O)(=O)N3CCOCC3)o2)cc1Cl	> 10 µM	IC50 [1]: > 10 µM
CCC(C)c1ccc(-n2c(SCC(=O)N3c4ccccc4CC3C)nc3ccccc3c2=O)cc1 (stereo unspecified)	9.46 µM	IC50 (FFLUC_HILL_SLOPE 26.9, FFLUC_R_SQUARED 0.3, PBLUC_HILL_SLOPE 22.4, PBLUC_R_SQUARED 0.296, read-out: LUCIFERASE INFECTION ASSAY - IC50): 8.58 µM
C=CCn1c(C)cc(C(=O)COC(=O)C(O)(c2ccccc2)c2ccccc2)c1C	5.78 µM	IC50 (PBLUC_HILL_SLOPE 1.92, PBLUC_R_SQUARED 0.565, read-out: LUCIFERASE INFECTION ASSAY - IC50): 1.84 µM
O=C(NCCN1C(=O)S/C(=C\c2ccccc2Cl)C1=O)c1ccc(Br)o1	> 10 µM	IC50 [1]: > 10 µM
COC(=O)c1cc(C#N)c(SCC(=O)c2ccc(Cl)cc2)nc1C(OC)OC	> 7.84 µM	IC50 [1]: > 7.84 µM
O=C(Nc1ccccc1C(=O)Nc1nnc(C(F)(F)F)s1)c1ccccc1	1.89 µM	IC50 (HEPG2TOX_HILL_SLOPE 6.74, HEPG2TOX_R_SQUARED 0.749, PBLUC_HILL_SLOPE 2.08, PBLUC_R_SQUARED 0.449, read-out: LUCIFERASE INFECTION ASSAY - IC50): 0.658 µM
COc1ccc(S(=O)(=O)N(C)CC2COc3ccccc3O2)cc1 (stereo unspecified)	> 10 µM	IC50 [1]: > 10 µM
CC(C)C(C(=O)Nc1ccc(C#N)cc1)c1ccc(Cl)cc1 (stereo unspecified)	> 10 µM	IC50 (HEPG2TOX_HILL_SLOPE 0.183, HEPG2TOX_R_SQUARED 0.415, read-out: LUCIFERASE INFECTION ASSAY - IC50): > 10 µM
CCOc1ccc(C2NC(=O)NC(C)=C2C(=O)OCC2CCCO2)cc1OC (stereo unspecified)	> 8.45 µM	IC50 [1]: > 8.45 µM
CC(=O)NC(C)CCc1ccc(C(=O)Cn2ncc(Cl)c(Cl)c2=O)cc1 (stereo unspecified)	9.36 µM	IC50 (HEPG2TOX_HILL_SLOPE 9.09, HEPG2TOX_R_SQUARED 0.148, PBLUC_HILL_SLOPE 4.21, PBLUC_R_SQUARED 0.695, read-out: LUCIFERASE INFECTION ASSAY - IC50): 5.55 µM
COc1ccc(-c2ccc3ncc(-c4ccc(NC(C)=O)cc4)n3n2)cc1OC	0.053 µM	IC50 (HEPG2TOX_HILL_SLOPE 0.646, HEPG2TOX_R_SQUARED 0.97, PBLUC_HILL_SLOPE 3.16, PBLUC_R_SQUARED 0.759, read-out: LUCIFERASE INFECTION ASSAY - IC50): 0.0264 µM
Cc1cccc(C)c1N(C(=O)CC(c1ccccc1)c1ccccc1)c1nc2ccccc2s1	> 10 µM	IC50 (FFLUC_HILL_SLOPE 6.55, FFLUC_R_SQUARED 0.86, PBLUC_HILL_SLOPE 3.66, PBLUC_R_SQUARED 0.235, read-out: LUCIFERASE INFECTION ASSAY - IC50): 7.33 µM
